Test results reported in ChEMBL document CHEMBL4354803, “Synthesis and biological activity of structurally diverse phthalazine derivatives: A systematic review” (Bioorg Med Chem, 2019).

Columns and labels:
[1] = tested on: Mus musculus; test: Antinociceptive activity in Balb/c mouse at 20 mg/kg, ip after 180 mins by tail flick test relative to control; type: functional
[2] = tested on: Mus musculus; test: Antinociceptive activity in Balb/c mouse at 20 mg/kg, ip after 120 mins by tail flick test relative to control; type: functional
[3] = target: T1, Poly [ADP-ribose] polymerase 1 (Homo sapiens, UniProt P09874); test: Inhibition of human PARP1 expressed in Escherichia coli incubated for 15 to 40 mins by ELISA
[4] = tested on: Rattus norvegicus; test: In vivo inhibition of Aldose reductase in streptozotocin-induced po dosed rat model of diabetes assessed as reduction in sorbitol accumulation in sciatic nerve administered at 4,7,24 hrs and measured at 27 hrs; type: functional
[5] = target: T1, Poly [ADP-ribose] polymerase 1; test: Inhibition of N-terminal GST-tagged human PARP1 expressed in a Baculovirus infected Sf9 insect cells using biotinylated substrate incubated for 1 hr by colorimetric method
[6] = target: T2, NAD-dependent protein deacetylase sirtuin-1 (Homo sapiens) (UniProt Q96EB6); test: Modulation of SIRT1 (unknown origin) expressed in Escherichia coli BL21(DE3) cells using Ac-EE-K(biotin)-GQSTSSHSK(Ac)NleSTEG-K(5TMR)-EE-NH2 as substrate after 25 mins by mass spectrometry
T2 sequence (whole entry): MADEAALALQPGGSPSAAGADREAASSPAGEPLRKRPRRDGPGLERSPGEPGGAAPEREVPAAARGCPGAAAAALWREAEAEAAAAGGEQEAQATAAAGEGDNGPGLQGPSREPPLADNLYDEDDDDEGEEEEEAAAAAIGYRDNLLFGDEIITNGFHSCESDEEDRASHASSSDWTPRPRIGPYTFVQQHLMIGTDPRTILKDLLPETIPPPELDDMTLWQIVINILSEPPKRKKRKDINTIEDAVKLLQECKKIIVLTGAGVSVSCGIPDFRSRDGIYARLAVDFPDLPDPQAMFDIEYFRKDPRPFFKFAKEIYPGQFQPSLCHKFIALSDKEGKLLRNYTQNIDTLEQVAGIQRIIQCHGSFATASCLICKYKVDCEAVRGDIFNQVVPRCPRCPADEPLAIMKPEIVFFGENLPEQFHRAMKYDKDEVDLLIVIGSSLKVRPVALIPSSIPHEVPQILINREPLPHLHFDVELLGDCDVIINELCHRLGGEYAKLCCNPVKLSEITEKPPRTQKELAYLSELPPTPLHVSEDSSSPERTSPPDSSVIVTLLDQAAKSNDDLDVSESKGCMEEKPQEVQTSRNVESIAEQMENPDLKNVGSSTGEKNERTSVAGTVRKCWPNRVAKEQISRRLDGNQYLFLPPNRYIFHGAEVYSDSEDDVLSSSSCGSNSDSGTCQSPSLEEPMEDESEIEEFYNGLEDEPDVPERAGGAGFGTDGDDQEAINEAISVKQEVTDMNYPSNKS

[7] = tested on: Ehrlich; test: Antitumor activity against mouse EAC cells implanted in Swiss albino mouse assessed as reduction in tumor growth at 5 mg/kg, ip dosed daily starting 6 days after inoculation; type: functional, organism-based; settings: 144 h
[8] = tested on: HepG2; test: Cytotoxicity against human HepG2 cells incubated for 48 hrs by sulforhodamine B staining based ELISA; type: functional, cell-based; settings: HepG2, 48 h
[9] = tested on: PC-3; test: Cytotoxicity against human PC3 cells after 24 hrs by MTT assay; type: functional, cell-based; settings: PC-3, 24 h
[10] = target: Aldo-keto reductase family 1 member B1 (Homo sapiens, UniProt P15121); test: Inhibition of human Aldose reductase
[11] = tested on: HepG2; test: cells; settings: Homo sapiens, HepG2, 24 h
Description: Cytotoxicity against human HepG2 cells after 24 hrs by MTT assay

[12] = Inhibition of recombinant human PARP expressed in Escherichia coli in presence of NAD+ by microplate scintillation counting method
[13] = Inhibition of PARP in human C41 cells assessed as reduction in protein accumulation preincubated for 30 mins followed by H2O2 addition and measured after 10 mins by FITC/DAPI-staining based fluorescence method; type: cell-based
[14] = tested on: MCF7; test: cells; settings: Homo sapiens, MCF7, 24 h
Description: Cytotoxicity against human MCF7 cells after 24 hrs by MTT assay

[15] = Inhibition of human HeLa cell derived PARP preincubated for 10 mins followed by NAD and double stranded DNA-oligos addition and measured after 45 mins by scintillation counting; type: cell-based
[16] = target: T1, Poly [ADP-ribose] polymerase 1; test: Inhibition of human PARP1 expressed in Escherichia coli using histone as substrate by ELISA
[17] = tested on: HUVEC; test: Induction of HUVEC proliferation incubated for 20 hrs followed by 3H thymidine incorporation and measured after 4 hrs by beta counting method; type: functional, cell-based; settings: Homo sapiens
[18] = Induction of mouse primary oligodendrocytes incubated for 16 to 24 hrs by WSTl reagent based assay; type: functional
[19] = tested on: MDA-MB-468; test: Growth inhibition of human MDA-MB-468 cells after 7 days by CCK-8 method; type: functional, cell-based; settings: MDA-MB-468, 168 h
[20] = tested on: CAPAN-1; test: Growth inhibition of human Capan1 cells after 7 days by CCK-8 method; type: functional, cell-based; settings: CAPAN-1, 168 h
[21] = tested on: Mus musculus; test: Anticonvulsant activity in ip dosed mouse assessed as protection against PTZ-induced seizure; type: functional
[22] = organism: Mus musculus; test: animal or person; settings: ICR, ip
Description: Anticonvulsant activity in ip dosed ICR mouse assessed as protection against 50 mA current-induced seizure pretreated for 30 mins followed by seizure induction measured for 60 mins by maximal electroshock seizure test

[23] = target: T1, Poly [ADP-ribose] polymerase 1; test: Inhibition of human PARP1 expressed in Escherichia coli incubated for 10 mins by colorimetric assay

T1 sequence (P09874 whole entry): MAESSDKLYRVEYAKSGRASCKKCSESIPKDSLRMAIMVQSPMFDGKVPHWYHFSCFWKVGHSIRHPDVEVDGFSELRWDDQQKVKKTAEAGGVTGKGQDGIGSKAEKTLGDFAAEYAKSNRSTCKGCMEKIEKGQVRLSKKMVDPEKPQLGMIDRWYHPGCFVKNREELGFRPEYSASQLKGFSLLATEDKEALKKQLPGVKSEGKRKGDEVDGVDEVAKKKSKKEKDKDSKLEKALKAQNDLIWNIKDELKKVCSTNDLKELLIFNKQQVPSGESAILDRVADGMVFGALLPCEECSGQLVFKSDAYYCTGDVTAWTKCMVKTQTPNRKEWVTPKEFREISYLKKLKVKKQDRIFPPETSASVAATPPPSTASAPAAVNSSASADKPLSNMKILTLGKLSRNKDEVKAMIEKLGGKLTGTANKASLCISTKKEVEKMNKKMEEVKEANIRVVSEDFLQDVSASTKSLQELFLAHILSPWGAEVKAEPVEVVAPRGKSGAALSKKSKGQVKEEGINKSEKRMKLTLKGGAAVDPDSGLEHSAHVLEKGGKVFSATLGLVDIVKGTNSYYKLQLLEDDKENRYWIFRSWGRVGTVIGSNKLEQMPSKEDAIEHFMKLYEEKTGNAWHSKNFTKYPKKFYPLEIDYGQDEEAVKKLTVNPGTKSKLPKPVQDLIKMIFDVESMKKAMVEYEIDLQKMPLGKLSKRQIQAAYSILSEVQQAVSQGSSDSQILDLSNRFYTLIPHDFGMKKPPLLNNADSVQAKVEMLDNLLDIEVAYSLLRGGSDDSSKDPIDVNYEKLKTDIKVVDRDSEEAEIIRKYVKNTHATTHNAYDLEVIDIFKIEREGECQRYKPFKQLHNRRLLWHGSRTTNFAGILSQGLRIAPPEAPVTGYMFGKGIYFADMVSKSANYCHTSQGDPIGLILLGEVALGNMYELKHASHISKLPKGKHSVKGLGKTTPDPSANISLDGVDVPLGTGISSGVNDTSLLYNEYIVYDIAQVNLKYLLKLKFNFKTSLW

Question: Which results are given for `CN(C)CCn1nc(-c2ccncc2)c2ccccc2c1=O`?
Answer: MPE [1]: 18.26%; MPE [2]: 14.84%

Question: With `O=C(c1cc(Cc2n[nH]c(=O)c3ccccc23)cc2c1OCC2)N1CCn2c(nnc2C(F)(F)F)C1` as the compound, how does the IC50 [3] read?
Answer: 1.7 nM

Question: Which ED50 [4] does the source give for `O=C(O)Cc1nn(Cc2nc3cc(Br)ccc3s2)c(=O)c2ccccc12` here?
Answer: 3.6 mg/kg

Question: For `O=C(CCCn1nc(-c2ccccc2)c2ccccc2c1=O)Nc1cccc(Cl)c1`, which IC50 [5] is on record?
Answer: 97 nM

Question: Which EC1.5 [6] does the source give for `O=C(Nc1cccc2cnn(-c3cccc(C(F)(F)F)c3)c(=O)c12)c1cccc(OCC(O)CO)n1` (configuration not stated) here?
Answer: < 5 µM

Question: Which IC50 [7] does the source give for `O=C(Cn1nc(Cc2ccccc2)c2ccccc2c1=O)NNC(=S)Nc1ccccc1` here?
Answer: 20 nM

Question: What about the IC50 [8] of the same compound?
Answer: 10 nM

Question: With `O=c1[nH]cc(F)c(=O)[nH]1` [FLUOROURACIL] as the compound, how does the IC50 [9] read?
Answer: 63800 nM

Question: For `O=C(O)Cc1nn(Cc2cc(F)cc(Br)c2)c(=O)c2ccccc12`, which IC50 [10] is on record?
Answer: 20 nM

Question: Which IC50 [11] does the source give for `O=C(Cn1nc(Cc2ccccc2)c2ccccc2c1=O)NNS(=O)(=O)c1ccccc1` here?
Answer: 17400 nM

Question: What about the IC50 [9] of the same compound?
Answer: 19800 nM

Question: What does the source list for `O=C(c1cc(Cc2n[nH]c(=O)c3ccccc23)ccc1F)N1CCN(c2ncccn2)CC1`?
Answer: IC50 [12]: 0.7 nM; EC50 [13]: 0.7 nM

Question: For `O=c1c2ccccc2c(Cc2ccccc2)nn1CC(=S)NNS(=O)(=O)c1ccccc1`, which IC50 [11] is on record?
Answer: 22200 nM

Question: What about the IC50 [14] of the same compound?
Answer: 19800 nM

Question: With `O=C(Nc1ccc(-c2cccc(Cc3n[nH]c(=O)c4ccccc34)c2)cc1)C1CC1` as the compound, how does the IC50 [15] read?
Answer: 57 nM

Question: With `CCN1CCCC2CN(C(=O)c3cc(Cc4n[nH]c(=O)c5ccccc45)ccc3F)CC21` (configuration not stated) as the compound, how does the IC50 [16] read?
Answer: 2 nM

Question: Which EC50 [17] does the source give for `O=c1[nH]nc(-c2ccc(N3CCCCCC3)c([N+](=O)[O-])c2)c2ccccc12` here?
Answer: 2500 nM

Question: What about the EC50 [18] of the same compound?
Answer: 200 nM

Question: For `O=C(c1cc(Cc2n[nH]c(=O)c3ccccc23)ccc1F)N1CCn2c(nnc2C(F)F)C1`, which IC50 [19] is on record?
Answer: 0.003 nM

Question: And the IC50 [20]?
Answer: 0.003 nM

Question: Which IC50 [15] does the source give for `O=C1CCC(=O)N1c1cccc(Cc2n[nH]c(=O)c3ccccc23)c1` here?
Answer: < 3 nM

Question: What about the ED50 [21] of the same compound?
Answer: 0.0016 µmol/kg

Question: For `O=C(O)Cc1nn(Cc2nc3cc(C(F)(F)F)ccc3s2)c(=O)c2cc3ccccc3cc12`, which IC50 [10] is on record?
Answer: 46 nM

Question: With `O=C(O)Cc1nn(Cc2nc3cc(C(F)(F)F)ccc3s2)c(=O)c2ncccc12` as the compound, how does the IC50 [10] read?
Answer: 2.1 to 52 nM

Question: For `O=C(c1cc(Cc2n[nH]c(=O)c3ccccc23)ccc1F)N1CCN(c2ccccn2)CC1`, which IC50 [15] is on record?
Answer: 3 nM

Question: For `CC1NC(=O)N(c2cccc(Cc3n[nH]c(=O)c4ccccc34)c2)C1=O` (configuration not stated), which IC50 [15] is on record?
Answer: 5 nM

Question: With `O=C(c1cc(Cc2n[nH]c(=O)c3ccccc23)ccc1F)N1CCNCC1` as the compound, how does the IC50 [15] read?
Answer: < 20 nM

Question: Which ED50 [22] does the source give for `O=C(O)CSc1nnc(Cn2[nH]c(=O)c3ccccc3c2=O)o1` here?
Answer: 184 µmol/kg

Question: With `CCCC(CCC)C(=O)O` [VALPROIC ACID] as the compound, how does the ED50 [22] read?
Answer: 1710 µmol/kg

Question: For `O=C(c1cc(Cc2n[nH]c(=O)c3ccccc23)ccc1F)N1CCn2c(nnc2C2CC2)C1`, which IC50 [23] is on record?
Answer: 8.41 nM
